pIC50: −log10 of the molar value. Where two headings read alike, the source gives them in different places.
What was measured:
RhlR = molecular target: T1, RhlR (Pseudomonas aeruginosa, UniProt P54292); experiment: P. aeruginosa PA14 ΔrhlIΔlasI RhlR GFP reporter antagonism assay; format: cell-based; conditions: for Max Inhibition (RhlR): P. aeruginosa PA14 ΔrhlIΔlasI, against 4 μM BHL with 10 μM OdDHL, highest concentrations tested
T1 construct: expressed in transfected cells; host or cells: E. coli JLD271 (K-12 ΔlacX74 sdiA271::Cam) carrying pJN105-R2 (RhlR expression) and pSC11-rhlI (rhlI'-lacZ reporter)
Protocol: We were interested in determining whether these new RhlR antagonists identified in an E. coli RhlR reporter maintained their activity in the native organism, P. aeruginosa. […] Antagonism of RhlR was measured in the presence of BHL and OdDHL (the latter signal was needed to induce the production of RhlR via LasR). […] The reasons for this reduction in activity are likely multifold, but we believe that they may stem from the low permeability of P. aeruginosa to small molecules, its lower (native) level of RhlR expression, its abundance of efflux pumps, and/or the cross-interaction of compounds with other targets (LasR, QscR, and potentially others) that then regulate RhlR. […] Nevertheless, these reporter data for sulfonyl HLs 39, 43, 59, and 75 in P. aeruginosa indicate that these compounds are capable of antagonizing RhlR activity in the native host.
RhlR activity in E. coli strain JLD271 (ΔsdiA) was measured via a β-galactosidase reporter (rhI-lacZ) using the Promega Beta-Glo Assay System as previously described. RhlR activity in P. aeruginosa PA14 (ΔrhlIΔlasI) was measured via a GFP reporter (rhlA-gfp). […] See Supporting Information for both reporter protocols.
Supporting Information — Aguirre-Figueroa et al.
P. aeruginosa RhlR reporter assay. RhlR activity in P. aeruginosa PA14 ΔrhlIΔlasI was measured via a GFP reporter. Briefly, a single colony of P. aeruginosa strain PA14 ΔrhlIΔlasI harboring the transcriptional fusion reporter pPROBE-GT rhlA-GFP (Table S1) was grown in LB medium with 40 μg/mL gentamicin overnight (~20 h). The culture was diluted 1:100 in fresh LB medium, without antibiotic, to an OD600 = 0.25 (0.22–0.30) (~1 h). Aliquots (2 μL) of compound DMSO stock solution or serial dilution were added to the inner wells (i.e., non-periphery rows) of a black, clear bottom 96-well plate. To 12 inner wells, DMSO alone (vehicle) was added to serve as controls (negative and positive). For the six negative control wells (no BHL), 198 μL of bacterial culture plus OdDHL (to achieve 10 μM) were added. For the six positive control wells (no test compound), 198 μL of bacterial culture plus OdDHL (10 μM) and BHL (to achieve 4 μM) were added. To all the remaining wells containing test compound, 198 μL of bacterial culture plus OdDHL (10 μM) and BHL (4 μM) were added. Water (200 μL) was added to the outer (periphery) wells to maintain humidity during incubation. Plates were incubated for 4 h at 37 °C. After incubation, the OD600 and GFP production (excitation at 500 nm, emission at 540 nm) were read for each well using a plate reader. To determine levels of RhlR activity, raw GFP production was divided by OD600 to correct for growth variation and then normalized to the negative (0%) and positive (100%) control wells.
Dose-response reporter assay data for compounds in the P. aeruginosa RhlR reporter.
Dose-response curves for RhlR agonism by BHL and for RhlR antagonism by selected compounds against 4 μM BHL using the P. aeruginosa PA14 RhlR reporter are provided below. Compound names are indicated on the x-axis of each plot. All assays performed in triplicate as at least three separate biological replicates. Error bars indicate SD of n = 3 trials. Curve fits generated using GraphPad Prism software (v9.0) using a variable slope sigmoidal curve fit. IC50 values for antagonists […]
Max Inhibition = 47% Max Inhibition = 59%
Max Inhibition = 49% Max Inhibition = 67%
(also on this page, place not known: % Activity % Activity % Activity % Activity % Activity)

bacterial growth = experiment: Effect on bacterial growth (OD600 over time); format: cell-based; conditions: at >2 mM concentrations
Protocol: All new compounds were fully characterized for purity and identity (see Supporting Information). […] The remaining compounds had no effect on growth over the concentration range tested. All compounds were tested in bacteriological assays in triplicate and in at least three separate trials using unique cultures. IC50 and EC50 values in reporter assays were calculated using GraphPad Prism software (version 9.0) with a variable slope sigmoidal curve fit.

T1 sequence (P54292 whole entry): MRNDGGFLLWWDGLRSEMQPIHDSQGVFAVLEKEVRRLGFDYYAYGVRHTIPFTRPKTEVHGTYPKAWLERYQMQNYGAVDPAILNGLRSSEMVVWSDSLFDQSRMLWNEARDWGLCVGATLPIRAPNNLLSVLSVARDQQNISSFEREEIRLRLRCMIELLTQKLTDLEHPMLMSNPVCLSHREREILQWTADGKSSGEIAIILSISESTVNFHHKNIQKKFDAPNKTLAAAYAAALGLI

Compound	pIC50 (RhlR)	Max Inhibition (RhlR) (RhlR)	effect on bacterial growth (bacterial growth)	pIC50 (RhlR; P. aeruginosa PA14 ΔrhlIΔlasI RhlR reporter)
O=C1OCC[C@@H]1NS(=O)(=O)c1cccc(Br)c1 [Compound 39, 3-bromo BSHL]	< 3.00	47%	modest effect on bacterial growth	
O=C1OCC[C@@H]1NS(=O)(=O)c1ccc(Cl)c(Cl)c1 [Compound 43, 3,4-di-Cl BSHL]	< 3.00	59%	modest effect on bacterial growth	
O=C1OCC[C@@H]1NS(=O)(=O)c1ccc(F)c(F)c1 [Compound 59, 3,4-di-F BSHL]	< 3.00	49%		
CCCCCS(=O)(=O)N[C@H]1CCOC1=O [Compound 75, C5 ASHL]		67%		< 3.00

Source: publication PMC12456999, “Sulfonyl Homoserine Lactones Are Tunable Probes to Inhibit the Quorum Sensing Receptor RhlR and Reduce Swarming Motility in Pseudomonas aeruginosa” (ACS Infectious Diseases, 2025)
